Where two headings read alike, the source gives them in different places.
Experiments:
S. mansoni worms = details: juvenile 4 weeks after infection vs adult 6 or 7 weeks, mice (Pica-Mattoccia et al., 2004); cited from earlier work
[1] = tested on: S. mansoni juvenile worms; details: at 8 days; previous report (Livia-Pica et al, 2004); cited from earlier work
[2] = tested on: S. mansoni juvenile worms (4 weeks old); format: cell-based, Schistosoma mansoni; details: 10 μM overnight, at 5 days
Method: (§1) FIG. 2. Juvenile worms (4 weeks old, S. mansoni) in vitro survival following overnight treatment with 10 μM PHX, 10 μM Gambogic Acid, 10 μM Praziquantel (PZQ) or DMSO (vehicle). Parasites death was assessed by optical examination each day using the following criteria: reduction of motility, tegumental damages and darker appearance. Data shown are the means of results of at least three experiments.
(§2) Seven-eight male worms or 4-5 worm pairs were recovered under aseptic conditions from infected mice by perfusion of mesenteric veins at 28 days (juvenile) or 56-days post infection (adult pairs) or 2-4 months post-infection (adult males). After washing, the worms were transferred into a 35 mm plates containing 3 mL of DMEM complete worms media and incubated at 37° C. in a humid atmosphere containing 5% CO2 with drugs overnight. Next, the worms were washed 3 times with drug-free medium and were incubated for 5 days at 37° C./5% CO2 and monitored daily under a stereo microscope for mobility, tegumental damage, viability and egg output (worm pairs). The experiment was repeated at least three times.
Juvenile worms (4 weeks old parasites) were also tested at the same conditions reported above. Following over night incubation of PHX (10 μM), viability of parasites was reduced by 80% after 5 days of observation (FIG. 2). […]

[3] = tested on: adult parasites (schistosomes); details: treatment of adult parasites (Redman et al.); cited from earlier work
S. mansoni adult worms = assay: microbe, parasite or virus in culture; format: cell-based, Schistosoma mansoni
Method: as §1, with “1. Adult” for “2. Juvenile”, “(8” for “(4”
as §2
Male adult worms (7-8 worms/sample) obtained from infected mice were cultured at 37° C., 5% CO2 in DMEM complete medium (10% FBS) in presence of different concentrations of PHX (3-10 μM) and for variable time (12h to 5 days). For all experiments Gambogic Acid (1-10 μM) and PZQ (1-10 μM) were used as positive controls while DMSO was used as negative control. […] Parasites death was assessed by optical examination each day using the following criteria: reduction of motility, tegumental damages and darker appearance.

[4] = tested on: S. mansoni adult worm pairs; assay: Egg production of adult worm pairs in vitro; format: cell-based, Schistosoma mansoni; details: 5 μM overnight, vs DMSO control
Method: as §2
In order to test the effect of PHX on egg production, adult worm pairs were treated overnight using the sub lethal dose of 5 μM. Total number of eggs laid by female parasites was determined 3 and 6 days after the treatment. To do so, the medium containing the eggs was harvested and briefly centrifuged. The pellet containing the eggs was re-suspended in 500 μl of saline solution and the egg number was determined by microscopy analysis.

S. mansoni = assay: In vivo efficacy in mice infected with S. mansoni (total worm count, hepatic egg burden); details: two weeks after treatment
Method: FIG. 3. Effect of PHX on total worm count (A) and egg burdens (B) in mice infected with S. mansoni. One-way analysis of variance (one-way Anova) was used to compare means of the samples. The p-values are indicated. PZQ (Praziquantel, oral administration, 500 mg/kg), PERHEX LOW (PHX, oral administration, 23 mg/kg), PERHEX HIGH (PHX, oral administration, 70 mg/kg).
Female ICR (CD-1) outbred and C57BL/6, 4-7 weeks old mice (Harlan Laboratories) were housed under controlled conditions [(22±2)° C.; (65±15)% relative humidity; 12/12 h light/dark cycle]. The mice received standard food and water ad libitum. Female ICR (CD-1) outbred mice were infected transcutaneously with approximately 80 (for mixed infection) or 200 (single sex) S. mansoni cercariae for life cycle maintainance and in vitro worm assays. For in vivo experiments, C57BL/6 mice were infected with 140 cercariae and administered with selected compounds.
C57B/L6 inbred female mice (5-6 weeks old) were divided in 4 groups of 7 animals each and treated with DMSO (control), PZQ or two dosages of PHX. All compounds were administered orally (vehicle is 2.5% Cremophor EL) 42 days post infection. The amount of PHX administered (23 mg/kg and 70 mg/kg) was guided by available information of therapeutic dose in use for angina treatment (Ashrafian H., 2007); PZQ was used at the standard dose (500 mg/Kg). Toxicity of compounds (e.g., death and behavioral changes) was assessed daily during and after treatment until the time of euthanasia. At 56 days post infection, mice were euthanized with an intraperitoneal injection of Tiletamina/Zolazepam ([…])+Xylazina (100 mg/kg) and adult worms perfused as described above.
Compound efficacy in vivo, measured using a number of criteria, was compared to that of the anti-schistosomal drug, PZQ. The criteria include the numbers of male and female worms (total worm count) recovered by perfusion and hepatic egg burden (number of eggs in the liver). To recover eggs trapped in liver, whole livers from individual mice were excised, weighed and incubated in a 4% KOH solution over night at 37° C. Eggs were counted under a dissecting microscope as previously described (Cheever, A. W., 1968).
Based on the strong in vitro effects of PHX against larvae, juvenile (4 weeks old) and adult worms, the in vivo efficacy of the drug was tested in mice infected with S. mansoni. Based on the previous cardiovascular studies of the drug (Ashrafian H., 2007), two different concentrations of PHX were used: a low dose (23 mg/Kg) and a high dose (70 mg/Kg). […] Two weeks after the treatment, mice were sacrificed and the total worm count and egg burden (number of eggs in the liver) were determined (FIG. 3). […]

[5] = cited from earlier work
[6] = tested on: S. mansoni newly transformed schistosomula; assay: CellTiterGlo luminescent viability assay on schistosomula; details: 24 h; for CC50: values of two independent experiments
Method: Cercariae, shed from infected snails, were subsequently converted to schistosomula by mechanical transformation using an optimised version of the protocol of Brink et al., 1977 previously described (Protasio et al. 2013). Briefly, the cercarial suspension (approximately 50.000 cercariae) was placed in a glass 40 ml tube on ice for 60 minutes in order to reduce parasite motility. Tail detachment was obtained by shaking cercariae vigorously for approximately 30 seconds in a vortex mixer before passing these through a 22G syringe needle approximately 10-12 times. Next, the separation of heads/schistosomula and tails was obtained by placing the heads plus tails suspension on 4-5 ml of ice-cold 70% Percoll in tube and centrifugating (600×g) for 10 minutes at 4° C. Finally, the schistomula preparations were washed twice (with DMEM complete media lacking FBS) and microscope examination was used to assess the quantity and quality of purified schistosomula (less than 1% tails). Schistosomula were cultured at 37° C. in 6 wells tissue culture plates containing 3 ml schistosomula complete media in an atmosphere of 5% CO2 for 24 hr before any further experimental manipulations proceeded. Negligible parasite death occurred in this media during the 24 hr culturing period. Following this, schistosomula were aliquoted into flat-bottom 384-well black-sided for compound assays.
Compounds are stored as solution of 100% DMSO at −20 ° C. under inert atmosphere. Intermediate storage microplates, in the 384 well/plate format, are prepared on demand and stored in the same controlled environment as the stock solutions. Intermediate microplate stored compounds are transferred to assay plates by the acoustic droplet ejection technology (ATS-100, EDC Biosystems USA) which ensures a safe, contactless, pre-dilution free delivery. The test set was transferred to 384 well, black, tissue culture treated destination plate. […]
The plate set was let to incubate with the compounds at 37° C./5% CO2 for 24 hours. […] The readout, luminescence based, was carried out by a CCD based detector (ViewLux, PerkinElmer USA). […]

[7] = HIGH dose 70 mg/Kg oral single dose
[8] = LOW dose 23 mg/Kg oral single dose

In the case of `O=C(C1CCCCC1)N1CC(=O)N2CCc3ccccc3C2C1` (stereo not shown) [Praziquantel], the “ED50 against juvenile worms relative to adult worms” value (S. mansoni worms) is listed as “at least 30 times”, the “survival of juvenile worms” value [1] is listed as “approximately 80%” and the “survival rate of juvenile worms” value [2] is listed as 50%.
For `CNCCCN1c2ccccc2CCc2ccccc21` [desipramine], the “rate of BODIPY FL C5-sphyngomyelin breakdown” value [3] is given as “no decrease”.
For `Cl.N` [NH4Cl], the “rate of BODIPY FL C5-sphyngomyelin breakdown” value [3] is listed as “no decrease”.
In the case of `C1CCC(C(CC2CCCCN2)C2CCCCC2)CC1` (stereo not shown) [Perhexiline, 2-(2,2-dicyclohexylethyl)piperidine], the “effect on viability of adult worms” value (S. mansoni adult worms; 3 μM) is reported as “no effect”, the inhibition at 5 µM (S. mansoni adult worms; Schistosoma mansoni, read-out: reduced viability of adult worms) is reported as ~50% and the “viability of adult parasites” value (S. mansoni adult worms; overnight incubation 10 μM, after 5 days) is reported as “statistically significant decreased viability”. For the same molecule, the “reduction in egg production” value ([4]; 3 days after treatment) was “around 60%”, the “reduction in egg production” value ([4]; 6 days after treatment) was “around 60%” and the “decrease in total worm counts” value (S. mansoni; [7]) was 63%. The “reduction of egg burden (number of eggs in the liver)” value (S. mansoni; [7]) was 60%, the “decrease in total worm counts” value (S. mansoni; [8]) was 35% and the “reduction of egg burden (number of eggs in the liver)” value (S. mansoni; [8]) was 50%. For the same molecule, the “inter-individual differences in apparent oral clearance” value ([5]; CYP2D6 polymorphisms) was “approximately 100 fold”, the plasma half-life ([5]; most subjects) was 24 to 48 h and the plasma half-life ([5]; poor metabolizers (CYP2D6)) was “up to 40 days”. The “defined therapeutic range of plasma concentration” value ([5]; range that avoids hepatotoxicity and peripheral neuropathy (Horowitz et al 1986)) was 0.15-0.6 mg 1^−1, the CC50 ([6]; Schistosoma mansoni, read-out: CC50 of newly transformed schistosomula, 24 h, 0.019-50 μM, four parameter fit) was 9.56 µM and the CC50 ([6]; read-out: CC50 of newly transformed schistosomula, 0.019-50 μM, four parameter fit) was 12.4 µM. For the same molecule, the “cytotoxicity in the initial screen” value ([6]; single concentration 10 μM, threshold 70% cytotoxicity, scaled DMSO 0% / gambogic acid 100%) was “positive compound” and the “rate of BODIPY FL C5-sphyngomyelin breakdown” value [3] was “no decrease”.

Source: patent US20170157102A1, “USE OF PERHEXILINE” (CONSIGLIO NAZIONALE DELLE RICERCHE, priority 2014, published 2017)
